{"source": "patent US8338380B2", "about": "“Use of the peptide RFMWMR as a therapeutic agent” (priority 2007, dated 2012)", "tested_on": "drug-resistant Mycobacterium tuberculosis", "conditions": "5 micrograms per ml", "data": [{"substance": "Ac-RFMWMR-NH2 [Ac-Arg-Phe-Met-Trp-Met-Arg-NH2]", "values": [{"measurement": "% inhibition", "value": 100.0, "unit": "%"}]}]}
